Results from publication PMC12392461, “Beyond Estrogenicity: A Comparative Assessment of Bisphenol A and Its Alternatives in In Vitro Assays Questions Safety of Replacements” (Environmental Science & Technology, 2025).
Read-outs that look alike come from different tables or passages of the source.

Legend:
ERα [1] = experiment: Literature ERα reporter gene assays (comparison); assay type: cell-based; settings: for EC10, approx.: in M (unit assumed)
Experimental: S5.4: Comparison with literature data for ERα reporter gene assays
To improve data comparability with our own results we converted reported EC₅₀ to EC₁₀ by dividing by 9, which is the ratio for log-logistic concentration-response curves with a hillslope of 1 (Figure S9a). Additionally, REPBPA values were calculated to enable a more consistent evaluation. Methodological differences between studies must be considered, as Reiniger et al.24 used the YES assay, while Goksøyr et al.25 applied ERα from fish (Figure S9b).
Cyan symbols highlight the ER-UAS-bla GripTite (this study and Tox21GenBLA).
(1 picture or pasted object on this page, not shown here)

Tox21 assays [2] = settings: cited from earlier work
ERα [3] = settings: cited from earlier work
PPARγ = system: PPARγ; design: method as in Crosthwait et al. 2025; Sun et al. 2025; settings: ref Crosthwait et al. 2025; Sun et al. 2025; cited from earlier work
Tox21 assays [4] = experiment: Re-evaluated Tox21 data (Adamovsky et al.), REPBPA and SRbaseline; settings: for SRbaseline: Specificity Ratio;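 on all read-outs here: published Tox21 results reanalysed with a revised model predicting baseline toxicity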
Source text: We also reanalyzed the Tox21 data of Adamovsky et al. with the updated baseline toxicity prediction model (Table S2).

[5] = experimental; ref Hansch, 1995; cited from earlier work
[6] = TOX21_AR_LUC_MDAKB2_Antagonist_0,5nM_R1881, re-evaluated Tox21 data, ref Adamovsky et al 2024
[7] = TOX21_CAR_Agonist, re-evaluated Tox21 data, ref Adamovsky et al 2024
[8] = TOX21_CAR_Antagonist, re-evaluated Tox21 data, ref Adamovsky et al 2024
[9] = Tox21BLA, ref Adamovsky et al. 2024
[10] = Tox21Luc, ref Adamovsky et al. 2024
[11] = TOX21_AR_LUC_MDAKB2_Antagonist_0,5nM_R1881, Relative Effect Potency
[12] = TOX21_AR_LUC_MDAKB2_Antagonist_0,5nM_R1881
[13] = TOX21_CAR_Agonist, Relative Effect Potency
[14] = TOX21_CAR_Antagonist, Relative Effect Potency
[15] = TOX21_PPARg_BLA_antagonist_ratio, re-evaluated Tox21 data, ref Adamovsky et al 2024
[16] = TOX21_PPARg_BLA_antagonist_ratio

CCC(C)(c1ccc(O)cc1)c1ccc(O)cc1 [BPB, 4,4'-(Butane-2,2-diyl)diphenol]
EC10, approx. (ERα [1]; Atlantic cod estrogen receptor, approximated from literature EC50, ref Goksøyr et al 2024): ~1.78E-07 | REPBPA (ERα [1]; Atlantic cod estrogen receptor, ref Goksøyr et al 2024): 1.19E+00 | EC10, approx. (ERα [1]; approximated from literature EC50, ref Pelch et al 2019): ~3.56E-08 | EC10, approx. (ERα [1]; approximated from literature EC50, ref Reiniger et Oehlmann 2024): ~1.87E-07 | EC10, approx. (ERα [1]; approximated from literature values, ref Kojima et al 2019): ~1.15E-08 | REPBPA (ERα [1]; relative estrogenic potency vs BPA, ref Kojima et al 2019): 3.17E+00 | REPBPA (ERα [1]; relative estrogenic potency vs BPA, ref Pelch et al 2019): 3.75E+00 | REPBPA (ERα [1]; relative estrogenic potency vs BPA, ref Reiniger et Oehlmann 2024): 1.35E+00 | EC10 (Tox21 assays [2]; ATG_NRF2_ARE_CIS_up, re-evaluated Tox21 data, ref Adamovsky et al 2024): 4.31e-07 M | EC10 (Tox21 assays [2]; [6]): 2.58e-06 M | EC10 (Tox21 assays [2]; [7]): 1.15e-06 M | EC10 (Tox21 assays [2]; [8]): 6.91e-08 M | EC10 (Tox21 assays [2]; [9]): 1.63E-07 | EC10 (Tox21 assays [2]; [10]): 2.15E-08 | EC50 (ERα [3]; estrogen receptor from Atlantic cod (Gadus morhua), ref Goksøyr et al 2024): 1.6 µM | EC50 (ERα [3]; ref Kojima et al 2019): 0.074 µM | EC50 (ERα [3]; ref Pelch et al 2019): 0.32 µM | Efficacy % (ERα [3]; ref Pelch et al 2019): 115.70% | EC50 (ERα [3]; ref Reiniger et Oehlmann 2024): 1.68 µM | Efficacy % (ERα [3]; ref Reiniger et Oehlmann 2024): 9.23E+01% | PPARγ transactivation reported in the literature (PPARγ): No agonism was detected | REPBPA (Tox21 assays [4]; ATG_NRF2_ARE_CIS_up, Relative Effect Potency): 17.53 | SRbaseline (Tox21 assays [4]; ATG_NRF2_ARE_CIS_up): 112.9 | REPBPA (Tox21 assays [4]; [11]): 0.94 | SRbaseline (Tox21 assays [4]; [12]): 18.87 | REPBPA (Tox21 assays [4]; [13]): 1.20 | SRbaseline (Tox21 assays [4]; TOX21_CAR_Agonist): 42.52 | REPBPA (Tox21 assays [4]; [14]): 7.88 | SRbaseline (Tox21 assays [4]; TOX21_CAR_Antagonist): 704.7 | REPBPA (Tox21 assays [4]; [9]): 3.63E+00 | REPBPA (Tox21 assays [4]; [10]): 1.63E+00

CC(c1ccc(O)cc1)c1ccc(O)cc1 [BPE, 4,4′-Ethylidenbisphenol]
EC10 (Tox21 assays [2]; [6]): 1.63e-06 M | EC10 (Tox21 assays [2]; [7]): 1.04e-05 M | EC10 (Tox21 assays [2]; [15]): 1.02e-05 M | EC10 (Tox21 assays [2]; [9]): 1.36E-06 | EC10 (Tox21 assays [2]; [10]): 3.57E-08 | REPBPA (Tox21 assays [4]; [11]): 1.49 | SRbaseline (Tox21 assays [4]; [12]): 76.62 | REPBPA (Tox21 assays [4]; [13]): 0.13 | SRbaseline (Tox21 assays [4]; TOX21_CAR_Agonist): 11.95 | SRbaseline (Tox21 assays [4]; [16]): 12.24 | REPBPA (Tox21 assays [4]; [9]): 4.35E-01 | REPBPA (Tox21 assays [4]; [10]): 6.37E-01

Oc1ccc(C2(c3ccc(O)cc3)CCCCC2)cc1 [BPZ, 1,1'-Bis(4-hydroxyphenyl)cyclohexane]
EC10 (Tox21 assays [2]; [8]): 4.58e-07 M | EC10 (Tox21 assays [2]; [15]): 1.84e-06 M | EC10 (Tox21 assays [2]; [10]): 2.65E-08 | REPBPA (Tox21 assays [4]; [14]): 1.19 | SRbaseline (Tox21 assays [4]; TOX21_CAR_Antagonist): 59.87 | SRbaseline (Tox21 assays [4]; [16]): 14.87 | REPBPA (Tox21 assays [4]; [10]): 2.90E+00

CC(C)Oc1ccc(S(=O)(=O)c2ccc(O)cc2)cc1 [D8, 4-((4-Isopropoxyphenyl)sulfonyl)phenol]
Efficacy % (ERα [3]; ref Pelch et al 2019): 10.30% | PPARγ transactivation reported in the literature (PPARγ): weaker effects

O=S(=O)(c1ccc(O)cc1)c1ccc(OCc2ccccc2)cc1 [BPS-MPE, 4-[4-(benzyloxy)benzenesulfonyl]phenol]
Efficacy % (ERα [3]; ref Pelch et al 2019): 9.40% | PPARγ transactivation reported in the literature (PPARγ): significant PPARγ activation

Oc1ccc(Sc2ccc(O)cc2)cc1 [BPT, 4,4'-Thiodiphenol]
EC10 (Tox21 assays [2]; [6]): 1.43e-06 M | EC10 (Tox21 assays [2]; [15]): 2.66e-06 M | EC10 (Tox21 assays [2]; [10]): 7.19E-08 | predicted or literature experimental log Kow [5]: 3.34 | REPBPA (Tox21 assays [4]; [11]): 1.69 | SRbaseline (Tox21 assays [4]; [12]): 66.82 | SRbaseline (Tox21 assays [4]; [16]): 35.93 | REPBPA (Tox21 assays [4]; [10]): 8.32E-01

CC(C)(c1cc(Cl)c(O)c(Cl)c1)c1cc(Cl)c(O)c(Cl)c1 [TCBPA, 2,2',6,6'-Tetrachlorobisphenol A]
EC10 (Tox21 assays [2]; ATG_PPARg_TRANS_up, re-evaluated Tox21 data, ref Adamovsky et al 2024): 2.35e-07 M | EC10 (Tox21 assays [2]; ATG_hPPARg_XSP2_up, re-evaluated Tox21 data, ref Adamovsky et al 2024): 4e-07 M | EC10 (Tox21 assays [2]; [15]): 4.02e-07 M | REPBPA (Tox21 assays [4]; ATG_PPARg_TRANS_up, Relative Effect Potency): 6.78 | SRbaseline (Tox21 assays [4]; ATG_PPARg_TRANS_up): 37.70 | REPBPA (Tox21 assays [4]; ATG_hPPARg_XSP2_up, Relative Effect Potency): 3.23 | SRbaseline (Tox21 assays [4]; ATG_hPPARg_XSP2_up): 22.19 | SRbaseline (Tox21 assays [4]; [16]): 22.07

CC(C)(c1ccc(O)c(-c2ccccc2)c1)c1ccc(O)c(-c2ccccc2)c1 [BPPH, 2,2-Bis(2-hydroxy-5-biphenylyl)propane]
Efficacy % (ERα [3]; ref Pelch et al 2019): 27.00%
